Source: publication PMC12337661, “PIEZO1 mechanical insensitivity in generalized lymphatic dysplasia with the potential for pharmacological rescue” (iScience, 2025)
Each block holds one compound with its values, some of them ahead of it.

Experiments:
mice = conditions: cited from earlier work
[1] = test system: T-REx-293 cells, empty vector (vector control); assay: Intracellular Ca2+ measurement (fura-2), T-REx-293 cells transiently transfected with empty vector; format: cell-based; conditions: 1 μM
Procedure: HEK 293 cell line was transiently transfected at 90% confluence using Lipofectamine 2000 (Invitrogen) in OptiMEM (Gibco). Briefly: 500 ng endotoxin-free DNA per 100μL OptiMEM was prepared alongside 3μL Lipofectamine 2000 per 100μL OptiMEM (Gibco). Both were incubated for 5 min and then mixed, and then incubated at room temperature (21°C–24°C) for 20–30 min. Finally, the transfection mix was gently added dropwise to the cells and the cells were placed in a humidified incubator at 37°C supplied with 5% CO2 for 5 h. Medium was replaced afterward, and cells were used for experimentation 48 h after transfection.
For intracellular Ca^2+ assays, cells were plated at 80–90% confluence in 96-well plates 24 h prior to recordings (6–8 × 10^4 cells per well). […] Cells were washed with SBS and incubated at room temperature for 20 min prior to recordings. Equal volumes of 2x concentrated compounds were injected to test for acute channel activation. Pre-incubation with compounds occurred during the 20 min prior to recordings. To expose cell membranes to hypo-osmolality, an equal volume of hypotonic SBS (containing only 35 mM NaCl) was injected onto the cells. Measurements were made on a fluorescence plate reader (Flexstation III, Molecular Devices) at room temperature (21 ± 2°C). Fura-2 was excited at 340 nm and 380 nm and emitted light collected at 510 nm, with measurements shown as the change in fluorescence (F) ratio (ΔF340/380).
KC41 (Dooku1) was prepared as described.[28] All purchased chemicals and solvents were used without further purification unless otherwise stated. All compounds were at least 95% pure by 1H NMR. 1H Nuclear Magnetic Resonance spectra were recorded at 500 MHz using a Bruker DRX 500 instrument or at 400 MHz using a Bruker DPX 400. 1H spectra are referenced based on the residual proton in the solvent (e.g., the CHCl3, 0.01% in 99.99% CDCl3). Coupling constants (J) are reported to the nearest 0.1 Hz. 13C NMR spectra were recorded at 125 MHz on 500 MHz spectrometers or at 100 MHz on 400 MHz spectrometers. LC-MS was performed on a Bruker Daltronics running a gradient of increasing acetonitrile (5–95%) in H2O both containing 0.1% formic acid at 1 mL.min^−1, on a short path C18 reverse phase column, detecting compounds with both a diode array detector and a Bruker mass spectrum analyser. HRMS was performed on a Bruker Daltonics micrOTOF using positive electrospray ionisation (ES+). Automated column chromatograph was carried out using a Biotage Isolera Four, using either Sfär Silica D or KP-Silica cartridges. HPLC was performed on an Agilent 1290 Infinity Series equipped with a UV detector and Hyperprep C18 reverse phase column. Key to NMR abbreviations: s (singlet), br s (broad singlet) d (doublet), dd (doublet of doublets), ddd (doublet of doublets of doublets), t (triplet), dt (doublet of triples), q (quartet), m (multiplet), ap. t (apparent triplet). For experiments, Yoda1 and its analogues were prepared as 10 mM stock solutions in 100% dimethyl sulfoxide (DMSO) before serial dilution in DMSO and final dilution in aqueous solution. Cells were exposed to 0.1% DMSO for all concentrations of the compounds from 0 to 10 μM.

[2] = Mouse plasma protein binding; format: in vitro ADME
Procedure: Aqueous solubility, mouse microsomal stability and mouse plasma protein binding assays were performed by Malvern Panalytical (UK) as previously described.[29]

Compound: Clc1cccc(Cl)c1CSc1nnc(-c2cnccn2)s1 [Yoda1]
- lymphatic valve formation (mice; WT mice): accelerated lymphatic valve formation
- adverse effects of injection (mice; mice injected): mostly not been adversely affected
- effect on edemas (mice; mice): reduce peripheral and central edemas
- meningeal lymphatic network function (mice; mice): restored meningeal lymphatic network function
- postsurgical lymphedema (mice; mice): suppressed postsurgical lymphedema
- cerebrospinal fluid accumulation and ventricular enlargement (mice; mouse models of Down syndrome): decreased pathological cerebrospinal fluid accumulation and ventricular enlargement
- fluorescence (ΔFratio) ([1]; time 0 s): 0.00237
- fluorescence (ΔFratio) ([1]; time 5 s): -0.00988
- fluorescence (ΔFratio) ([1]; time 10 s): 0.01607
- fluorescence (ΔFratio) ([1]; time 15 s): 0.00395
- fluorescence (ΔFratio) ([1]; time 20 s): -3.91E-04
- fluorescence (ΔFratio) ([1]; time 25 s): -0.01211
- fluorescence (ΔFratio) ([1]; time 30 s): -0.08353
- fluorescence (ΔFratio) ([1]; time 35 s): 0.00717
- fluorescence (ΔFratio) ([1]; time 40 s): 0.03324
- fluorescence (ΔFratio) ([1]; time 45 s): 0.05289
- fluorescence (ΔFratio) ([1]; time 50 s): 0.03768
- fluorescence (ΔFratio) ([1]; time 55 s): 0.03322
- fluorescence (ΔFratio) ([1]; time 60 s): 0.03103
- fluorescence (ΔFratio) ([1]; time 65 s): 0.02272
- fluorescence (ΔFratio) ([1]; time 70 s): 0.00255
- fluorescence (ΔFratio) ([1]; time 75 s): 0.00791
- fluorescence (ΔFratio) ([1]; time 80 s): -0.00287
- fluorescence (ΔFratio) ([1]; time 85 s): 0.01077
- fluorescence (ΔFratio) ([1]; time 90 s): -0.01792
- fluorescence (ΔFratio) ([1]; time 95 s): -0.01119
- fluorescence (ΔFratio) ([1]; time 100 s): 0.01819
- fluorescence (ΔFratio) ([1]; time 105 s): 8.16E-04
- fluorescence (ΔFratio) ([1]; time 110 s): 0.00558
- fluorescence (ΔFratio) ([1]; time 115 s): 0.00369
- fluorescence (ΔFratio) ([1]; time 120 s): 7.66E-04
- fluorescence (ΔFratio) ([1]; time 125 s): 0.00667

- unbound to mouse plasma proteins [2]: 0.4%
Compound: O=C(O)c1ccc(-c2cnc(SCc3c(Cl)cccc3Cl)s2)cc1 [Yoda2b, 4-(2-([(2,6-Dichlorophenyl)methyl]sulfanyl)-1,3-thiazol-5-yl)benzoic acid]
